The values that follow are results of earlier work, collected in patent publication US8192721B2, “Compositions useful for reducing toxicity associated with gadolinium-based contrast agents” (Verrow Pharmaceuticals, Inc., priority 2007, dated 2012).

For data set [1] the following is noted: healthy subjects with normal renal function.
For data set [2] the following is noted: compared with underivatized β-cyclodextrin.

For the compound `[Gd]` [gadolinium], the plasma half-life entry in data set [1] is “approximately 90 minutes”.

For “β-cyclodextrin sulfobutyl ethers [Captisol®]”, the nephrotoxicity result in data set [2] was “does not exhibit the nephrotoxicity”.
